Data published in PMC10983001, “Development of Cytotoxic GW7604-Zeise’s Salt Conjugates as Multitarget Compounds with Selectivity for Estrogen Receptor- Positive Tumor Cells” (Journal of Medicinal Chemistry, 2024).

How the values were obtained:
ERα in MCF-7 cells = assay: Western blot analysis of ER downregulation; format: cell-based, human; conditions: MCF-7, 20 μM, 24 h
Description: The exponentially growing cells were seeded at a density of 2.5 × 10^6 (MCF-7) and 3.0 × 10^6 (SKBr3) cells into 75 cm^2 flasks. The cells were incubated for 24 h in a humidified atmosphere (5% CO2/95% air) at 37 °C. For downregulation experiments, a stock solution of GW7604-Pent-PtCl3 in DMF was freshly prepared and diluted with DMEM containing 10% FCS to the desired concentration [final DMF concentration of 0.1% (v/v), final complex concentration of 20 μM]. The medium in the flasks was replaced with fresh cell culture medium containing the compound, and the flasks were incubated in a humidified atmosphere at 37 °C for 24 h. Afterward, cells were harvested (cell scratcher), and samples were lysed using a modified radio immunoprecipitation assay buffer [50 mM of TRIS (pH = 8.0), 150 mM NaCl, 0.5% NP-40, 50 mM NaF, 1 mM […], 1 mM phenylmethylsulfonyl fluoride, and protease inhibitors (EDTA-free; Roche, Basel, Switzerland)]. Total protein concentration was determined by employing the Bradford assay as described above, and samples were analyzed on the JESS ProteinSimple (Bio-Techne, Minneapolis, MN, USA) according to the manufacturer’s protocol. The following antibodies were used: GAPDH (no. 2118S, cell signaling), ERα (no. 8644S, cell signaling), and COX-2 (no. 12282, cell signaling). All primary antibodies were diluted with antibody diluents provided by ProteinSimple.

human recombinant COX-2 = biological target: T1, human recombinant COX-2 (Homo sapiens, UniProt P35354); format: biochemical; conditions: incubation 10 min
T1 construct: purchased Cayman Chemicals
T1 sequence (P35354 18-604): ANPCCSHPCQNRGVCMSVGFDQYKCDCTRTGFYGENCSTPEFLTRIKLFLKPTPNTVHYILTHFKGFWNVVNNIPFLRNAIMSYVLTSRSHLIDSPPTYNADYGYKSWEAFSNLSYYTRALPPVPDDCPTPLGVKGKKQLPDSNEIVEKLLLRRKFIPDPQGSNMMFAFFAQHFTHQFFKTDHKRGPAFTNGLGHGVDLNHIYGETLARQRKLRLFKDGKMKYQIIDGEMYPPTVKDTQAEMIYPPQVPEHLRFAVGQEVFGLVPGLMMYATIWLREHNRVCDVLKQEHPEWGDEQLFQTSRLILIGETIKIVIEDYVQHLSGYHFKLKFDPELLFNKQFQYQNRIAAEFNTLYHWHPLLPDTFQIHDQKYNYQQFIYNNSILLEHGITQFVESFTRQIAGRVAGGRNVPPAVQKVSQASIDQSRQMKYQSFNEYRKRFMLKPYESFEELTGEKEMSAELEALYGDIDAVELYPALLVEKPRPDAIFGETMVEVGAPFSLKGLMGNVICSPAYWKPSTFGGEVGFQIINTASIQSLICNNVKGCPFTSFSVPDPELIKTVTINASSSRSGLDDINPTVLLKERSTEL
Description: COX-1/2 inhibition was evaluated in an established assay on isolated isoenzymes. After incubation with the drugs (concentration: 20 μM) for 10 min, the remaining COX activity was measured by an enzyme-linked immunosorbent assay (ELISA).
The incubation time of the compounds with the respective isoenzymes was exactly 10 min. The results are presented as the mean ± SEM of three independent experiments, with two replicates of each experiment. […] Graphs were drawn using GraphPad Prism 8.0.

MCF-7 cells = assay: MTT assay of metabolic activity, MCF-7; format: cell-based, human; conditions: 72 h, MTT; read-out: IC50 MCF-7
Description: The GW7604-Alk-PtCl3 complexes (with exclusion of GW7604-Prop-PtCl3) were investigated for cytotoxic effects in SKBr3 (ER-negative, COX-2-positive, Figure 6), MCF-7 (ERα-positive, COX-negative, Figure 6), and noncancerous TSA-201 (human embryonal kidney) cells at concentrations of 10–30 μM using an established MTT (3-(4,5-dimethylthiazol-2-yl)-2,5-diphenyltetrazolium bromide) assay.[60],[69]
After incubation for 72 h, the amounts of surviving, metabolically active cells were quantified based on their ability to transform the water-soluble yellow dye MTT to a purple formazan, which can be analyzed by UV–vis spectroscopy.
The exponentially growing cells were seeded at a density of 1750 (MCF-7), 2000 (SKBr3), and 1250 (TSA-201) cells/well into clear flat-bottom 96-well plates in triplicate. Following 24 h of incubation at 37 °C in a humidified atmosphere (5% CO2/95% air), the compounds [freshly prepared stock solutions in DMF, diluted with DMEM to the desired concentration (final DMF concentration of 0.1% (v/v))] were added to reach the indicated concentrations. After another 72 h of incubation, the cellular metabolic activity was measured employing an MTT assay. By adding predissolved MTT reagent in PBS at a final concentration of 0.5 mg/mL, the metabolic activity can be determined via an enzymatic conversion to a purple formazan salt. After 3 h, the medium was aspirated, and 200 μL of DMSO was added to dissolve the formed formazan crystals. The absorbance was measured at 570 and 690 nm (turbidity assessment) using an EnSpire plate reader (PerkinElmer, Waltham, MA, USA). Solvent-treated cells without a compound served as the positive control. Metabolic activity was calculated by the following equation [drawing 1]

Q: How did the “ER downregulation (SERD effect)” value (ERα in MCF-7 cells) turn out when CCC(=C(c1ccc(O)cc1)c1ccc(C=CC(=O)OCCC[CH]2[CH2][Pt-]2([Cl])([Cl])[Cl])cc1)c1ccccc1.[K+] (mixture of isomers) [GW7604-Pent-PtCl3, Potassium trichlorido[η^2-(pent-4-en-1-yl (E)-3-(4-((E/Z)-1-(4-hydroxyphenyl)-2-phenylbut-1-en-1-yl)phenyl)acrylate)]platinate(II)] was run?
A: The value was “nor downregulated the ER content”.

Q: What about the IC50 (human recombinant COX-2; 0.1–20 μM) of the same compound?
A: The IC50 was 1820 nM.

Q: And the “concentration at which maximum activity is reached, COX-2” value (human recombinant COX-2)?
A: Its value is 10 µM.

Q: What about the IC50 (MCF-7 cells) of the same compound?
A: Its IC50 is 19.6 µM.
